Test results: patent US8222022B2, “Tri-functionalized cryptophane biosensors” (The Trustees of the University of Pennsylvania, priority 2008, dated 2012)
Blank lines part the entries; values can stand above or below the compound they belong to.

Experiments:
[1] = comparison value; cited from earlier work
[2] = Xenon binding by fluorescence quenching; conditions: 293 K, phosphate buffer
Protocol: Steady-state fluorescence spectra were acquired using a Varian Cary Eclipse fluorimeter equipped with a Peltier multicell holder for temperature control. Concentration measurements necessary for fluorescence work were obtained using an Agilent 8453 UV-Vis spectrophotometer. Xenon binding determination by fluorescence quenching was performed. The quantum yield of tri-acid cryptophane was measured relative to tryptophan.
The xenon affinity of tricarboxylate cryptophane was studied by fluorescence quenching (FIG. 2) and isothermal titration calorimetry (ITC) (FIG. 3). […] As in a previous fluorescence quenching study with TTPC, temperature-equilibrated solutions of xenon-saturated water were added sequentially by syringe to a septum-sealed fluorescence cuvette and fluorescence intensity measurements were taken. […]
A saturated xenon solution at 310 K ([Xe]=3.3 mM) was titrated into the septum-sealed cuvette by gas-tight syringe. […] In all cases, fluorescence spectra were collected after thermal equilibration at 293 K (FIG. 2)
The fluorescence maxima were fitted to a single-site binding model using the following relationship.
At xenon saturation, [Xe]=5.05 mM at 293 K and 1 atm, the cryptophane fluorescence was half quenched (Fo/F=2). No cryptophane impurities or concentration dependent phenomena were observed that might also contribute to partial fluorescence quenching. […]

[3] = Xenon binding by isothermal titration calorimetry (ITC) in phosphate buffer
Protocol: ITC samples were prepared and experiments were performed using a MicroCal VP-ITC titration microcalorimeter (Northampton, Mass.) at 293 K. Standard protocols and data analysis were used. Control enthalpograms are given in the appended figures.
In order to confirm the association constants obtained by fluorescence quenching, ITC experiments were performed.
(§1) Xenon binding was also determined by isothermal titration calorimetry (ITC), which directly measured the heat released during Xe association. ITC measurements were undertaken in 20 mM, pH 7.5 phosphate buffer at 293 K and 310 K as well as in human plasma at 310 K (FIG. 3).
The association constants obtained from fits of ITC data at 293 K (KA=1.73×10^4 M^−1, Table 5) and fluorescence quenching were in excellent agreement. […] This was likely a consequence of the 20 water molecules that make up the first solvation sphere of the Xe atom in aqueous solution.

[4] = Xenon binding by ITC in human plasma; conditions: Plasma 310 K
Protocol: as §1
From Table 5 and the known thermodynamics of xenon partitioning into water, an upper limit of ΔH=−7.5 kcal/mol was calculated for the enthalpy of xenon binding to I. Thus, the measured ΔH of −6.04 kcal/mol, although larger than in buffer, appeared reasonable.

[5] = biological target: human isozyme II (CAII) (Homo sapiens, UniProt P00918); test: Binding to carbonic anhydrase II in solution (ITC); conditions: read-out: KD against CAII
Text: The ^129Xe isotope has a spin-½ nucleus, a >200 ppm chemical shift window in water, and a natural isotopic abundance of 26% (commercially available up to 86%), which makes it an appealing biomolecular probe for MRI. Moreover, ^129Xe can be laser polarized to enhance MRI signals ˜10,000-fold.

[6] = Acid-base titration
[7] = Aqueous solubility (visual observation of precipitation, dissolution in aqueous base); conditions: visual observation of precipitation during titration
Text: Steric congestion near the carboxylic acid group decreases acidity by preventing efficient solvation of the carboxylate anion. […] Each acid group attached to TAAC can be approximated as being an acetic acid attached to a ˜1 nm diameter nonpolar sphere. Water molecules surrounding the nonpolar cryptophane surface must be ordered, a consequence of the hydrophobic effect. Carboxylate solvation must directly compete with this ordered solvation sphere necessary for the cryptophane core.

[8] = 293 K, 20 mM pH 7.5 phosphate buffer

Compound: COc1ccccc1OCC(=O)O [2-(2-methoxyphenoxy)acetic acid]
- pKa of analogous acid (comparison) [1]: 3.23

- association constant (Xe) by fluorescence quenching [2]: 17,000±1800 M^−1
- KA ([3]; Buffer 293 K): 1.73 ± 0.17 M^−1 × 10^4
- TΔS ([3]; Buffer 293 K): 2.55 kcal/mol
- ΔG ([3]; Buffer 293 K): -5.69 kcal/mol
- ΔH ([3]; Buffer 293 K): -3.14 ± 0.20 kcal/mol
- KA ([3]; Buffer 310 K): 3.01 ± 0.26 M^−1 × 10^4
- TΔS ([3]; Buffer 310 K): 2.80 kcal/mol
- ΔG ([3]; Buffer 310 K): -6.36 kcal/mol
- ΔH ([3]; Buffer 310 K): -3.56 ± 0.13 kcal/mol
- KA ([3]; ITC at 293 K (Table 2)): 1.70 M^−1 × 10^4
- TΔS ([3]; ITC at 293 K (Table 2)): 2.55 kcal/mol
- ΔG ([3]; ITC at 293 K (Table 2)): -5.69 kcal/mol
- ΔH ([3]; ITC at 293 K (Table 2)): -3.14 kcal/mol
- upper limit of ΔH for the enthalpy of xenon binding ([3]; calculated from Table 5 and known thermodynamics of xenon partitioning into water): ≤ -7.5 kcal/mol
- ΔS of xenon binding ([3]; phosphate buffer, 293 and 310 K): 9.0 cal/mol K
- KA [4]: 2.19 ± 0.22 M^−1 × 10^4
- TΔS [4]: 0.12 kcal/mol
- TΔS (contribution of entropy) [4]: 0.12
- measured ΔH of xenon binding [4]: -6.04 kcal/mol
- ΔG [4]: -6.16 kcal/mol
- ΔH [4]: -6.04 ± 0.33 kcal/mol
- Kd [5]: 0.06 ± 0.02 µM
Compound: tri-triazole propionate cryptophane [TTPC]

- association constant (Xe) by fluorescence quenching [2]: 33,000±2000 M^−1
- additional stabilization of the Xe@TAAC complex relative to Xe@TTPC ([3]; 293 K): -0.37 kcal/mol
- xenon association constant KA by ITC [3, 8]: 33,000±3000 M^−1
- ΔG of xenon binding [3, 8]: -6.09 kcal/mol
- ΔH of xenon binding [3, 8]: -4.3 ± 0.7 kcal/mol
- ΔS of xenon binding [3, 8]: 5.9 cal*mol^−1*K^−1
- xenon association constant ([3]; 293 K, by ITC and fluorescence quenching assay): 33,000 M^−1
- xenon association constant ([3]; 310 K, extrapolated from the 293 K value): ~50,000 M^−1
- KA ([3]; ITC at 293 K (Table 2)): 3.33 ± 0.28 M^−1 × 10^4
- TΔS ([3]; ITC at 293 K (Table 2)): 1.72 kcal/mol
- ΔG ([3]; ITC at 293 K (Table 2)): -6.06 kcal/mol
- ΔH ([3]; ITC at 293 K (Table 2)): -4.34 ± 0.66 kcal/mol
- pKa [6]: 4.1
Compound: COc1cc2c3cc1OCCOc1cc4c(cc1OCC(=O)O)Cc1cc5c(OCC(=O)O)cc1Cc1cc(c(OCC(=O)O)cc1C4)OCCOc1cc(c(cc1OC)C3)Cc1cc(OC)c(cc1C2)OCCO5 [TAAC, Tri-Acetic Acid Cryptophane]
- deprotonations required for aqueous solubility [7]: required all three acids to be deprotonated for aqueous solubility
